How the values were obtained:
SULT1E1 from chicken = experiment: Sulfation of phenolic compounds in vivo by E. coli strain expressing sulfotransferase; format: cell-based, Gallus gallus domesticus; conditions: M9, 1 mM IPTG, overnight 37° C.; start concentration per compound 61-287 μM
Description: (§1) The concentration of p-courmaric acid (pHCA) and zosteric acid in the supernatant was quantified by high performance (HPLC) and compared to chemical standards. HPLC was done on a Thermo setup using a HS-F5 column and mobile phases: 5 mM ammonium formate pH 4.0 (A) and acetonitrile (B) at 1.5 mL min-1, using a gradient elution starting at 5% B. From 0.5 min after injection to 7 min, the fraction of B increased linearly from 5% to 60%, and between 9.5 min and 9.6 the fraction of B decreased back to 5%, and remaining there until 12 min. pHCA and zosteric acid were quantified by measuring absorbance at 277 nm.
(§2) To further test the range of substrates that can be sulfated, we used strains carrying plasmids expressing SULT1A1 from rat (Rattus norvegicus) and SULT1E1 from chicken (Gallus gallus domesticus) (Example 1) cloned into the expression vector pETDuet-1, and cysDNCQ from E. coli cloned into expression vector pRSFDuet-1 (Example 2). The plasmids were introduced into the E. coli expression strain BL21(DE3)pLysS as described previously, selecting for transformants with appropriate antibiotics, namely 34 μg mL^1 chloramphenicol for pLysS, 100 μg mL^−1 ampicillin for pETDuet-1-based vectors, and 100 μg mL^−1 kanamycin for pRSFDuet-1-based vectors. […] A control strain without a sulfotransferase gene or cysDNCQ operon was also examined.
(§3) The strains were precultured in 2×YT medium with appropriate antibiotics. 10 μL of these precultures were used to inoculate M9 media with 1 mM IPTG and none or a single substrate for sulfation. After overnight growth at 37° C., 300 rpm the supernatants were withdrawn and examined by HPLC as described in Example 1. The compounds were detected by UV absorbance.

SULT1A1 rat + CysDNCQ = molecular target: T1, SULT1A1 rat + CysDNCQ (Rattus norvegicus, UniProt P17988); experiment: Sulfation of phenolic compounds in vivo by E. coli strain expressing sulfotransferase with cysDNCQ; format: cell-based; conditions: M9, 1 mM IPTG, overnight 37° C.; start concentration per compound 61-287 μM
T1 construct: 1, 3, 4, 5, and 6 were cloned amplified from liver tissue cDNA (Zyagen) by PCR; expressed in transfected cells; host or cells: E. coli BL21(DE3)pLysS with pETDuet-1 (SULT1A1) and pRSFDuet-1 (cysDNCQ)
Description: as §1, §2, §3

SULT1A1 from rat = molecular target: T2, SULT1A1 from rat (Rattus norvegicus, UniProt P17988); experiment: Sulfation of phenolic compounds in vivo by E. coli strain expressing sulfotransferase; format: cell-based; conditions: M9, 1 mM IPTG, overnight 37° C.; start concentration per compound 61-287 μM
T2 construct: 1, 3, 4, 5, and 6 were cloned amplified from liver tissue cDNA (Zyagen) by PCR; expressed in transfected cells; host or cells: E. coli BL21(DE3)pLysS, plasmid pETDuet-1
Description: as §1, §2, §3

E. coli MG1655 = experiment: Toxicity of unsulfated or sulfated product: growth rates of E. coli; format: cell-based; conditions: M9 0.2% glucose, pH 7, 37° C.; 10-40 mM pHCA or 20 or 40 mM zosteric acid
Excerpt: All media preparations had been adjusted to pH 7. […] Filled squares represent growth rates in media with pHCA.

T2 sequence (P17988 whole entry): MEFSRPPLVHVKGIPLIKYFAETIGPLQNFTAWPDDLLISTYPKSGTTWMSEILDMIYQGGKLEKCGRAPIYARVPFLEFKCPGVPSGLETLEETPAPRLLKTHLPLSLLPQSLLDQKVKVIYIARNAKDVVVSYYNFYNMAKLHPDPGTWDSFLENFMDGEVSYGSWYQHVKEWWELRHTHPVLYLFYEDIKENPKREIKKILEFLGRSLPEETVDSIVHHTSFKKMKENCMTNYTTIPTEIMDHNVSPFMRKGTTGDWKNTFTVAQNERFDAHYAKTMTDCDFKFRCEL
T1 sequence (P17988 whole entry): as above

percent reduction in concentration compared to the control strain, SULT1A1 + CysDNCQ (SULT1A1 rat + CysDNCQ) [%] | percent reduction in concentration compared to the control strain, SULT1A1 (SULT1A1 from rat) [%] | SMILES | percent reduction in concentration compared to the control strain, SULT1E1 (SULT1E1 from chicken) [%] | toxicity to the cells (growth rates in exponential growth phase, FIG. 5) (E. coli MG1655)
39 | 33 | COc1cc(C(=O)O)ccc1O [Vanillic acid] | 0 | 
100 | 72 | COc1cc(/C=C/C(=O)O)ccc1O [Ferulic acid] | 67 | 
7 | 3 | O=C(O)CCc1ccc(O)cc1 [3-(4-Hydroxyphenyl) propionic acid] | 1 | 
64 | 47 | O=C(O)C(=O)Cc1ccc(O)cc1 [4-Hydroxyphenyl pyruvic acid] | 100 | 
 |  | O=C(O)/C=C/c1ccc(O)cc1 [pHCA, p-coumaric acid] |  | toxic to the cells
99 | 41 | O=c1cc(-c2ccc(O)cc2)oc2cc(O)cc(O)c12 [Apigenin] | 98 | 
37 | 27 | O=c1cc(-c2ccc(O)c(O)c2)oc2cc(O)cc(O)c12 [Luteolin] | 0 | 
100 | 98 | O=c1c(O)c(-c2ccc(O)c(O)c2)oc2cc(O)ccc12 [fisetin] | 98 | 
6 | 5 | O=C(O)c1ccc(O)cc1 [4-hydroxybenzoic acid] | 4 | 
30 | 24 | CC(=O)Nc1ccc(O)cc1 [4-acetamidophenol, reference compound] | 10 | 

SMILES | percent reduction in concentration compared to the control strain, SULT1A1 + CysDNCQ (SULT1A1 rat + CysDNCQ) [%] | percent reduction in concentration compared to the control strain, SULT1A1 (SULT1A1 from rat) [%] | percent reduction in concentration compared to the control strain, SULT1E1 (SULT1E1 from chicken) [%] | toxicity to the cells (growth rates in exponential growth phase, FIG. 5) (E. coli MG1655)
O=c1c(O)c(-c2ccc(O)c(O)c2)oc2cc(O)cc(O)c12 [Quercetin] | 81 | 75 | 74 | 

Source: patent US11390894B2, “Biological processes for the production of aryl sulfates” (CysBio ApS, priority 2014, dated 2022)
